This note sets out measurements from ChEMBL document CHEMBL5506015, “Discovery of a Meisoindigo-Derived PROTAC as the ATM Degrader: Revolutionizing Colorectal Cancer Therapy via Synthetic Lethality with ATR Inhibitors” (J Med Chem, 2024).

The test system of one data set is SW13. Kind of data set: Cytotoxicity against human SW13 cells assessed as reduction in cell viability incubated for 48 hrs by MTT assay. Conditions: SW13, 48 h.
Another data set relates to RKO. The experiment in a line: Cytotoxicity against human RKO cells assessed as reduction in cell viability incubated for 48 hrs by MTT assay.
The next data set deals with NCI-H358. Kind of data set: Cytotoxicity against human NCI-H358 cells assessed as reduction in cell viability incubated for 48 hrs by MTT assay. Conditions: NCI-H358, 48 h. In general terms: Formazan colour is commonly taken as a measure of viable cells.
Another data set has as its system COLO 205. Kind of data set: Cytotoxicity against human COLO 205 cells assessed as reduction in cell viability incubated for 48 hrs by MTT assay. Conditions: COLO 205, 48 h.
In another data set the test system is SW480. Kind of data set: Cytotoxicity against human SW480 cells assessed as reduction in cell viability incubated for 48 hrs by MTT assay. Conditions: SW480, 48 h.
For data set [1], the system named is SW-620. The experiment in a line: Cytotoxicity against human SW620 cells assessed as reduction in cell viability incubated for 48 hrs by MTT assay. The following applies: SW-620, 48 h.
Another data set relates to A2780. Kind of data set: Cytotoxicity against human A2780 cells assessed as reduction in cell viability incubated for 48 hrs by MTT assay. Conditions: A2780, 48 h.
The test system of the next data set is LoVo. The experiment in a line: Cytotoxicity against human LoVo cells assessed as reduction in cell viability incubated for 48 hrs by MTT assay.
For the next data set, the system named is K562. Kind of data set: Cytotoxicity against human K562 cells assessed as reduction in cell viability incubated for 48 hrs by MTT assay. The following applies: K562, 48 h.
Data set [2] is described as follows: Cytotoxicity against human HIEC-6 cells assessed as reduction in cell viability incubated for 48 hrs by MTT assay. It counts as toxicity, cell-based. The following applies: HIEC-6 cells.
Data set [3] concerns SW-620. The experiment in a line: Downregulation of KDM4B level in human SW620 cells at 1.25 to 10 uM measured after 12 hrs by immunoblot analysis. It counts as functional, cell-based. Conditions: dose 1.25-10 µM. A general note: In western blotting, separated proteins are transferred to a membrane and probed.
Data set [4] has as its system SW-620. The experiment in a line: Downregulation of PROX1 level in human SW620 cells at 1.25 to 10 uM measured after 12 hrs by immunoblot analysis. The format is functional, cell-based. Conditions: dose 1.25-10 µM.
Data set [5] concerns SW-620. The experiment in a line: Effect on ATM mRNA level in human SW620 cells at 2.5 to 10 uM incubated for 12 hr by RT-PCR analysis. It counts as functional, cell-based. The following applies: dose 2.5-10 µM.
Another data set has as its system HCT-116. The experiment in a line: Cytotoxicity against human HCT-116 cells assessed as reduction in cell viability incubated for 48 hrs by MTT assay. The following applies: HCT-116, 48 h.
The test system of data set [6] is SW-620. Kind of data set: Antitumor activity against human SW620 cells xenografted in Balb/c nude mouse model assessed as increase in gamma-H2AX at 25 mg/kg/day measured after 14 days by Western blot analysis. It counts as functional, organism-based. Conditions: time 14.0 day. (In general: In xenograft studies the graft and the host belong to different species.)

Data set [7] relates to SW-620. Kind of data set: Antitumor activity against human SW620 cells xenografted in Balb/c nude mouse model assessed as inflammatory cell infiltration at 25 mg/kg/day measured after 14 days by H and E staining based analysis. The format is functional, organism-based. The following applies: time 14.0 day.
Data set [8] deals with SW-620. Kind of data set: Antitumor activity against human SW620 cells xenografted in Balb/c nude mouse model assessed as increase in gamma-H2AX level at 25 mg/kg/day measured after 14 days by Western blot analysis. The format is functional, organism-based. The following applies: time 14.0 day.
The test system of data set [9] is SW-620. Kind of data set: Antitumor activity against human SW620 cells xenografted in Balb/c nude mouse model assessed as decrease in cleaved caspase 3 level at 25 mg/kg/day measured after 14 days by Western blot analysis. The following applies: time 14.0 day. It counts as functional, organism-based.
The test system of data set [10] is SW-620. Kind of data set: Antitumor activity against human SW620 cells xenografted in Balb/c nude mouse model assessed as decrease in BCL2 protein level at 25 mg/kg/day measured after 14 days by Western blot analysis. It counts as functional, organism-based. Conditions: time 14.0 day.
Data set [11] concerns SW-620. The experiment in a line: Antitumor activity against human SW620 cells xenografted in Balb/c nude mouse model assessed as fibrosis at 25 mg/kg/day measured after 14 days by H and E staining based analysis. The following applies: time 14.0 day. It counts as functional, organism-based.
In data set [12] the test system is SW-620. The experiment in a line: Antitumor activity against human SW620 cells xenografted in Balb/c nude mouse model assessed as necrosis at 25 mg/kg/day measured after 14 days by H and E staining based analysis. The format is functional, organism-based. Conditions: time 14.0 day.
For data set [13], the system named is SW-620. Kind of data set: Antitumor activity against human SW620 cells xenografted in Balb/c nude mouse model assessed as decrease in pro-caspase 3 level at 25 mg/kg/day measured after 14 days by Western blot analysis. It counts as functional, organism-based. Conditions: time 14.0 day.
The test system of data set [14] is SW-620. Kind of data set: Antitumor activity against human SW620 cells xenografted in Balb/c nude mouse model assessed as increase in cleaved-caspase 3 level at 25 mg/kg/day measured after 14 days by Western blot analysis. The format is functional, organism-based. The following applies: time 14.0 day.
In data set [15] the test system is SW-620. The experiment in a line: Antitumor activity against human SW620 cells xenografted in Balb/c nude mouse model assessed as decrease in ATM protein level at 25 mg/kg/day measured after 14 days by Western blot analysis. Conditions: time 14.0 day. It counts as functional, organism-based.
For data set [16], the system named is SW-620. The experiment in a line: Antitumor activity against human SW620 cells xenografted in Balb/c nude mouse model assessed as reduction in tumor load at 25 mg/kg/day administered for 14 days by vernier caliper based analysis. Conditions: time 14.0 day. It counts as functional, organism-based.

The structures appear in SMILES notation. Active and inactive are the calls of the source. No cut-off for these calls is given here.

As to `O=c1[nH]cc(F)c(=O)[nH]1` [FLUOROURACIL], the IC50 (as a rule, the concentration at which inhibition is half-maximal) with SW13 is above 20 µM; in the data set on RKO it was 3.43 µM; in the data set on NCI-H358, above 20 µM; in the data set on COLO 205, 4.54 µM; in the data set with SW480, 12.6 µM; in the data set on SW-620 [1], 13.8 µM. Besides, the IC50 was 12.9 µM with A2780, 9.89 µM in the data set on LoVo and above 20 µM in the data set on K562. For the same molecule, the IC50 at 48 h in data set [2] was determined as 18.6 µM.
Turning to `CN1C(=O)/C(=C2/C(=O)Nc3ccccc32)c2ccccc21` [MEISOINDIGO], the IC50 is 12.9 µM in the data set on SW13; 11.6 µM with RKO; above 20 µM in the data set on NCI-H358; 7.55 µM in the data set on COLO 205; 2.8 µM in the data set with SW480; 9.14 µM in the data set with SW-620 [1]. In addition, the IC50 was determined as 6.57 µM in the data set with A2780, 12.7 µM with LoVo, 8.17 µM with K562 and 5.36 µM with HCT-116. For the same molecule, the result in the data set with SW-620 [3] and in the data set with SW-620 [4] was Active. The outcome with SW-620 [5] was inactive. For the same molecule, in [2], the 50% inhibitory concentration (IC50) at 48 h is 12 µM.
Take `C[C@@H]1COCCN1c1cc(C2([S@](C)(=N)=O)CC2)nc(-c2cc[nH]c3nccc2-3)n1`: the outcome in the data set on SW-620 [6], in the data set with SW-620 [7], in the data set with SW-620 [8], in the data set on SW-620 [9], in the data set on SW-620 [10] and in the data set on SW-620 [11] was Active. The result in the data set with SW-620 [12], with SW-620 [13], with SW-620 [14], in the data set on SW-620 [15] and in the data set with SW-620 [16] was Active.
As to `O=C1CCC(N2Cc3c(NCCCCCCn4cc(CCCN5C(=O)/C(=C6/C(=O)Nc7ccccc76)c6ccccc65)nn4)cccc3C2=O)C(=O)N1` (stereo not drawn), the IC50 was above 20 µM in the data set with SW13; 6.79 µM with RKO; above 20 µM in the data set on NCI-H358; above 20 µM in the data set with COLO 205; above 20 µM in the data set on SW480; 7.76 µM with SW-620 [1]. For the same molecule, the IC50 with A2780 is 7.47 µM; in the data set on LoVo, 15.1 µM; in the data set on K562, above 20 µM; in the data set on HCT-116, above 20 µM. Further, the IC50 at 48 h in [2] is above 20 µM.
In the case of `Cc1ncsc1-c1ccc(CNC(=O)[C@@H]2C[C@@H](O)CN2C(=O)[C@@H](NC(=O)OC(C)(C)C)C(C)(C)C)cc1`, the IC50 with SW13, in the data set with RKO, in the data set on NCI-H358, in the data set with COLO 205, in the data set with SW480 and in the data set with SW-620 [1] was above 20 µM in each case. Also, the IC50 in the data set on A2780, in the data set on LoVo, in the data set with K562 and in the data set on HCT-116 was above 20 µM in each case. Moreover, in [2], the IC50 at 48 h is above 20 µM.
For `CC(C)n1c(=O)n(C)c2cnc3cc(F)c(-c4ccc(OCCCN5CCCCC5)nc4)cc3c21` [AZD-1390], the IC50 in the data set on SW13, in the data set with RKO, in the data set on NCI-H358, in the data set on COLO 205, in the data set on SW480 and in the data set with SW-620 [1] was above 20 µM throughout. Besides, the IC50 in the data set with A2780, in the data set on LoVo, in the data set on K562 and in the data set with HCT-116 was above 20 µM throughout. Moreover, in [2], the IC50 at 48 h was above 20 µM.
